According to patent US8772335B2, “Adamantyl derivatives as therapeutic agents” (Women & Infants' Hospital of Rhode Island, priority 2011, dated 2014):

What was measured:
Assay type in all cases: cell-based
[1] = system: ovarian and endometrial cancer cells; assay: MTS viability with ascorbic acid co-treatment (role of ROS)
Experimental: Cancer cells derived from neuroblastoma (SMSKCNR), ovarian (SKOV-3), prostate (PC-3), endometrial (ECC-1, AN3CA, KLE), breast (MCF-7) and trophoblasts (TCL-1) were seeded (5000-10000 cells/well) in a 96 well plate in complete medium as recommended by ATCC and allowed to adhere overnight. The medium was replaced with fresh complete medium containing ascorbic acid (500 μM) and added various concentrations of AC-AM. The cells were incubated under standard humidified incubator (5% CO2) for 24 hours. The medium was replaced again with 100 μL of complete RPMI medium containing MTS reagent (Cell titre 96 aqueous one solution cell proliferation assay, Promega, Madison, Wis.) and incubated for 1-6 hours until violet farmazon color developed (the optical density of the color was read with an ELISA plate reader at 492 nm wavelength). The OD values of the treatment wells were plotted against vehicle OD set at 100% cell viability using MS excel software.

SKOV-3 cells = assay: Cell cycle progression of SKOV-3 cells (propidium iodide, FACS); set-up: G1 / Apoptosis: unit not given here; details: for G1 / G2/M / S / Apoptosis: SKOV-3 cells, 10 μM; for G1 / G2/M / S: cell population distribution by FACS; for Apoptosis: sub-G1 population by FACS
Experimental: SKOV-3 cells (˜1 million) were seeded in complete DMEM media in 10 cm^2 dishes and allowed to adhere overnight. Media was removed and supplemented with AMITC and AC-AM (10 μM) or vehicle and cells were harvested at 4, 12, 18, 32, and 48 hours. The cells were washed and fixed with cold 70% ethanol/H2O. After 1 hour, ethanol was removed and 500 μL of propidinium iodide (PI) (1 mg/10 mL) was added to each tube containing cells. The distribution of the cell population in various phases of cell-cycle was analyzed using FACS. 10,000 events were chosen from each sample.

[2] = system: immortalized TCL-1 trophoblasts; assay: MTS cell viability, immortalized trophoblasts (control cells); details: drug concentrations of 40 μM
Experimental: Cancer cells derived from neuroblastoma (SMSKCNR), ovarian (SKOV-3), prostate (PC-3), cervical (HeLa), skin (a431), immortalized lung fibroblasts (MRCS) and immortalized trophoblasts (TCL-1) were seeded (5000-10000) in a 96 well plate in complete medium as recommended by ATCC and allowed to adhere overnight. Medium was replaced with fresh complete medium containing various concentrations of compound (2) and (3). The cells were incubated under standard humidified incubator (5% CO2) for 48 hours. The medium was replaced again with 100 μL of complete RPMI medium containing MTS reagent (Cell titre 96 aqueous one solution cell proliferation assay, Promega, Madison, Wis.) and incubated for 1-6 hours until violet farmazon color developed (the optical density (OD) of the color was read with an ELISA plate reader at 492 nm wavelength). The OD values of the treatment wells were plotted against vehicle OD as 100% cell viablity using MS excel software.
Cancer cells derived from neuroblastoma (SMSKCNR), ovarian (SKOV-3), prostate (PC-3), endometrial (ECC-1, AN3CA, KLE), breast (MCF-7) and trophoblasts (TCL-1) were seeded (5000-10000 cells/well) in a 96 well plate in complete medium as recommended by ATCC and allowed to adhere overnight. The medium was replaced with fresh complete medium containing ascorbic acid (500 μM) and added various concentrations of AC-AM. […]

SMILES | G1 (SKOV-3 cells; 4 hr) | G2/M (SKOV-3 cells; 4 hr) | S (SKOV-3 cells; 4 hr) | Apoptosis (SKOV-3 cells; 4 hr) | G1 (SKOV-3 cells; 12 hr) | G2/M (SKOV-3 cells; 12 hr) | S (SKOV-3 cells; 12 hr) | Apoptosis (SKOV-3 cells; 12 hr) | G1 (SKOV-3 cells; 18 hr) | G2/M (SKOV-3 cells; 18 hr) | S (SKOV-3 cells; 18 hr) | Apoptosis (SKOV-3 cells; 18 hr) | G1 (SKOV-3 cells; 32 hr) | G2/M (SKOV-3 cells; 32 hr) | S (SKOV-3 cells; 32 hr) | Apoptosis (SKOV-3 cells; 32 hr) | G1 (SKOV-3 cells; 48 hr) | G2/M (SKOV-3 cells; 48 hr) | S (SKOV-3 cells; 48 hr) | Apoptosis (SKOV-3 cells; 48 hr) | further results
CC(=O)NC(CSC(=S)NCC12CC3CC(CC(C3)C1)C2)C(=O)O (stereo not shown) [AC-AM] | 63 | 10.40 | 25.70 | 4.81 | 45.15 | 27.17 | 27.67 | 7.73 | 37.37 | 30.85 | 31.78 | 13.33 | 37.78 | 28.89 | 33.34 | 16.29 | 48.48 | 17.90 | 33.62 | 16.62 | effect of antioxidant ascorbic acid on cytotoxicity [1]: blocked
S=C=NCC12CC3CC(CC(C3)C1)C2 [AMITC, adamantyl methyl isothiocyanate] | 63 | 11 | 25.30 | 7.24 | 46.18 | 26.06 | 27.27 | 8.52 | 39.19 | 29.13 | 31.32 | 14.83 | 48 | 20.12 | 31.86 | 16.07 | 43 | 37.44 | 19.36 | 19.46 | viability of immortalized TCL-1 trophoblasts [2]: not significantly affected; effect on cell cycle phases (in words) (SKOV-3 cells; SKOV-3 ovarian cancer cells): arrest ovarian cancer cells in G2/M phase
